Data published in article PMC2806534 (Planta, 2009).

Biological target: T1, AtSUT4 (Arabidopsis thaliana, UniProt Q9FE59)
T1 sequence (Q9FE59 1-510): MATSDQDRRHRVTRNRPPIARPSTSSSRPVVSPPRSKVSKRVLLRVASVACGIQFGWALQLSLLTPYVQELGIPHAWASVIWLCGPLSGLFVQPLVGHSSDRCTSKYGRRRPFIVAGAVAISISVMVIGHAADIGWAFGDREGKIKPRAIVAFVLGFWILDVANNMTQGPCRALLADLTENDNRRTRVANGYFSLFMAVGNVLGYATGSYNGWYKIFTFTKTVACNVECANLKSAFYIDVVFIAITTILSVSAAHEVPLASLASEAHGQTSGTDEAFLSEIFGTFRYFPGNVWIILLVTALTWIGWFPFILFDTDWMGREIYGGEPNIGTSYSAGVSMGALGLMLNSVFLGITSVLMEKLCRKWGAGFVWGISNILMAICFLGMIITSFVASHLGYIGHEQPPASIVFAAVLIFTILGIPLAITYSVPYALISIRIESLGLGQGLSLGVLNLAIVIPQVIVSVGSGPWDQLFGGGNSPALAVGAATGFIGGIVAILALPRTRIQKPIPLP
Experiment: inhibition of ^[…]-sucrose uptake in yeast expressing AtSUT4
Format: cell-based
Conditions: 3 mM ^14C-sucrose; competing non-labeled sugar at 9 mM

OC[C@H]1O[C@@H](O[C@H]2[C@H](O)[C@@H](O)C(O)O[C@@H]2CO)[C@H](O)[C@@H](O)[C@H]1O (some centres unmarked) [lactose]
% inhibition at 9 mM: uptake of sucrose by AtSUT4 was inhibited by rutinose, maltose and lactose

OC[C@H]1O[C@H](O[C@H]2[C@H](O)[C@@H](O)C(O)O[C@@H]2CO)[C@H](O)[C@@H](O)[C@@H]1O (some centres unmarked) [maltose]
% inhibition at 9 mM: uptake of sucrose by AtSUT4 was inhibited by rutinose, maltose and lactose
